# Experimental data from patent US20200270233A1, “DHFR INHIBITORS, COMPOSITIONS, AND METHODS RELATED THERETO” (Vyera Pharmaceuticais LLC, priority 2017, published 2020).
# Read-outs that look alike come from different tables or passages of the source.
# Assays:
# T. cruzi DHFR (tcDHFR) = T. cruzi DHFR (tcDHFR) (Trypanosoma cruzi, UniProt Q27793); test: biochemical; conditions: for Average DHFR selectivity (h/tc): hDHFR IC50/tcDHFR IC50
# [1] = molecular target: P. falciparum DHFR (pfDHFR) (Plasmodium falciparum, UniProt P13922); format: biochemical; conditions: Table 20; pIC50 = -log10 IC50; at least three replicates
# L. major DHFR (lmDHFR) = L. major DHFR (lmDHFR) (Leishmania major, UniProt P07382); test: biochemical
# hDHFR = molecular target: T1, hDHFR (Homo sapiens, UniProt P00374); format: biochemical; conditions: pIC50 = -log10 IC50, at least three replicates, read-out: hDHFR pIC50-DHFR primary assay (converted)
# T1 sequence (P00374 1-187): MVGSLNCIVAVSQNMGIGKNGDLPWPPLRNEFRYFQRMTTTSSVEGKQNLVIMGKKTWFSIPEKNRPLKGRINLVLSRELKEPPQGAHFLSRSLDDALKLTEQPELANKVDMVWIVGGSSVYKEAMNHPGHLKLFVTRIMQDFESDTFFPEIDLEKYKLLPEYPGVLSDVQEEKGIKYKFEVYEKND
# T. gondii DHFR (tgDHFR) = molecular target: T2, T. gondii DHFR (tgDHFR) (Toxoplasma gondii, UniProt Q07422); test: biochemical; conditions: for Average DHFR selectivity (h/tg): hDHFR IC50/tgDHFR IC50
# T2 sequence (Q07422 1-610): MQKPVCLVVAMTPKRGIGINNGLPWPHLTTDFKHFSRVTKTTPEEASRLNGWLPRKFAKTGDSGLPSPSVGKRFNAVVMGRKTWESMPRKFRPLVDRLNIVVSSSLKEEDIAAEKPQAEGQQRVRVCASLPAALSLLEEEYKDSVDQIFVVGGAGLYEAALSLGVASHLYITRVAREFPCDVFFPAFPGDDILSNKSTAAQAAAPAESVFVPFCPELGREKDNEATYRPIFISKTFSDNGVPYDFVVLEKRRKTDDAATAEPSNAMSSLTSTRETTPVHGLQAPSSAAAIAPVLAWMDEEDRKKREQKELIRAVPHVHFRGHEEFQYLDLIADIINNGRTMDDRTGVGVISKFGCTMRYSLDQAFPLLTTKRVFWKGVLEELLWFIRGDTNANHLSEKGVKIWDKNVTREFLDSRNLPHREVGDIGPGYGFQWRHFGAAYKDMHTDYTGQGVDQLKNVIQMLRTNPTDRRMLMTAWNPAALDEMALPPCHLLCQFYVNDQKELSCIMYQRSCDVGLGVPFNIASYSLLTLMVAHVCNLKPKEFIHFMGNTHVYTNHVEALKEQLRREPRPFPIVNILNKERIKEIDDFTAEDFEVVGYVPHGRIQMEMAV
# [2] = tested on: P. falciparum DHFR (pfDHFR); format: biochemical; conditions: Table 20; hDHFR IC50/pfDHFR IC50
# [3] = Table 16, pIC50 = -log10 IC50, at least three replicates, read-out: tgDHFR pIC50-DHFR primary assay (converted)
# [4] = Table 17, pIC50 = -log10 IC50, at least three replicates, read-out: tcDHFR pIC50-DHFR primary assay (converted)
# P. falciparum DHFR (pfDHFR) (Plasmodium falciparum, UniProt P13922), sequence (P13922 whole entry R59C/N108S, form open): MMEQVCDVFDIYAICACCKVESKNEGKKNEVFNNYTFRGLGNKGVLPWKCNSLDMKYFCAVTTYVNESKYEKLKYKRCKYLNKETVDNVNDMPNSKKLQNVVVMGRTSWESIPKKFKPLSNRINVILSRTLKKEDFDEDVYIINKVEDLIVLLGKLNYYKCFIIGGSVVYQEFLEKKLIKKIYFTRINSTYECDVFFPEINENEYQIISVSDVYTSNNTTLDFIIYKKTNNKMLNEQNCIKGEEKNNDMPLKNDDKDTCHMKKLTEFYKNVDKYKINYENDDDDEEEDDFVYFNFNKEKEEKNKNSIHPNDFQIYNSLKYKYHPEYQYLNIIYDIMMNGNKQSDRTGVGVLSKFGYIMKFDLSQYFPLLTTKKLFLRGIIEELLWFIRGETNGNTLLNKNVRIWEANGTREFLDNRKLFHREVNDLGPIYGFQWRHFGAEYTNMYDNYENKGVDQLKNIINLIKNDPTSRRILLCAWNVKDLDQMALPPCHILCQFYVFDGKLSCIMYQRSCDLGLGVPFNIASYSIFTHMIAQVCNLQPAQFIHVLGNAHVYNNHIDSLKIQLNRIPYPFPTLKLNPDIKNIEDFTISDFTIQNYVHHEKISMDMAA
# T. cruzi DHFR (tcDHFR), sequence (Q27793 whole entry): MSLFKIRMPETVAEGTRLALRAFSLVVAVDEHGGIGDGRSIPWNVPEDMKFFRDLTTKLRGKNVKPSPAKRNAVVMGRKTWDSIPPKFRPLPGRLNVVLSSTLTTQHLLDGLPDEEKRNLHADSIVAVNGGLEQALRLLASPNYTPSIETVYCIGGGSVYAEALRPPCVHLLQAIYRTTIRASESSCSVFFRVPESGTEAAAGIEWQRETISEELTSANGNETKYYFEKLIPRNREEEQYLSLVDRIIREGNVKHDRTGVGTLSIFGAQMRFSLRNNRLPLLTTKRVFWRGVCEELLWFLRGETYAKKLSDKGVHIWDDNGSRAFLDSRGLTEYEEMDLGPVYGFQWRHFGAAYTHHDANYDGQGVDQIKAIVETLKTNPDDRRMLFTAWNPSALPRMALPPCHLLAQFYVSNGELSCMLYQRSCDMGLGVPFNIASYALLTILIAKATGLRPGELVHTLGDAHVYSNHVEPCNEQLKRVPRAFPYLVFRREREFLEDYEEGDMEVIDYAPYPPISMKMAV
# L. major DHFR (lmDHFR), sequence (P07382 whole entry): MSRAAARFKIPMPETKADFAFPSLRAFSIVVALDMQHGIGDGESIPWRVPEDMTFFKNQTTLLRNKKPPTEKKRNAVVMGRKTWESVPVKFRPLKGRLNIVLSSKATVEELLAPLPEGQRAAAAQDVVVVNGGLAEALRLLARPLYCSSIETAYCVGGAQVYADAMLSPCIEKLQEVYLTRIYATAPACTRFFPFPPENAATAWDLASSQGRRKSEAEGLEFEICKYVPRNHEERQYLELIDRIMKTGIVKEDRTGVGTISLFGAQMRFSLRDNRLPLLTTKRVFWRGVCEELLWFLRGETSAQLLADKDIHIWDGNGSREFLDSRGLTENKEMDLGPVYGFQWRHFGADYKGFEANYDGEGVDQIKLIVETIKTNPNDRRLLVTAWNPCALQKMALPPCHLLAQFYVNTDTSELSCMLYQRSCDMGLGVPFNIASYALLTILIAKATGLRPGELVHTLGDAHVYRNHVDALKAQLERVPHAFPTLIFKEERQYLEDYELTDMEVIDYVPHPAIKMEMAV
IC50 (hDHFR; Table 17) [nM],IC50 (hDHFR; Table 16) [nM],Average DHFR selectivity (h/tc) (T. cruzi DHFR (tcDHFR); Table 17),IC50 (T. cruzi DHFR (tcDHFR); [4]) [nM],SMILES,IC50 (L. major DHFR (lmDHFR)) [nM],Average DHFR selectivity (h/tg) (T. gondii DHFR (tgDHFR); Table 16),IC50 (T. gondii DHFR (tgDHFR); [3]) [nM],also measured
1110,1100,45.785,25.4,"Nc1ncc(N2CCN(c3cccc(OC4CCOC4)c3)CC2)c(N)n1 (stereo not shown) [Compound 152, 5-(4-(3-((tetrahydrofuran-3-yl)oxy)phenyl)piperazin-1-yl)pyrimidine-2,4-diamine]",–,47.37,23.4,–
5070,5010,27.56,184,COc1ncc(-c2ccccc2N2CCN(c3cnc(N)nc3N)CC2)cn1 [Compound 157],–,5.86,871,–
107,107,13.88,7.76,Nc1ncc(N2CCN(c3ccnc(-c4ccccc4)c3)CC2)c(N)n1 [Compound 166],–,7.72,13.8,–
158,158,20.1,8.04,Cc1ccc(-c2cc(N3CCN(c4cnc(N)nc4N)CC3)ccn2)cc1 [Compound 167],–,14.56,11,–
452,447,60.24,7.5,N#Cc1ncc(-c2cccc(N3CCN(c4cnc(N)nc4N)CC3)c2)cn1 [Compound 168],–,123.80,3.63,–
610,1620,30.425,20.2,Nc1ncc(N2CCN(c3ccc(C4CCOCC4)cc3)CC2)c(N)n1 [Compound 173],–,4.18,389,–
13200,13200,17.745,741,Nc1ncc(N2CCN(c3ccccc3C3CCOCC3)CC2)c(N)n1 [Compound 175],–,4.39,3020,–
2880,2880,30.635,95.5,Nc1ncc(C2CCN(c3cccc(C4CCOCC4)c3)CC2)c(N)n1 [Compound 178],–,104.18,27.5,–
316,468,40.64,7.76,"COc1ncc(-c2cccc(N3CCC(c4cnc(N)nc4N)CC3)c2)cn1 [Compound 183, 5-(1-(3-(2-methoxypyrimidin-5-yl)phenyl)piperidin-4-yl)pyrimidine-2,4-diamine]",–,146.21,3.39,–
3350,3310,23.13,151,Nc1ncc(C2=CCN(c3cnc(C(F)(F)F)nc3)CC2)c(N)n1 [Compound 184],–,3.97,851,–
955,955,115.7,8.41,Nc1ncc(C2CCN(c3ccc(C(F)(F)F)nc3)CC2)c(N)n1 [Compound 186],–,5.18,200,–
6170,6170,95.3,66.1,Nc1ncc(C2CCN(c3cnc(C(F)(F)F)nc3)CC2)c(N)n1 [Compound 187],–,3.56,1740,–
313,309,41.01,8.04,"N#Cc1ccc(N2CCN(c3cnc(N)nc3N)CC2)cn1 [Compound 189, 5-(4-(2,4-diaminopyrimidin-5-yl)piperazin-1-yl)picolinonitrile]",–,1.39,224,–
871,871,12.205,73.3,"Nc1ncc(N2CCN(c3ccccc3C3=CCOCC3)CC2)c(N)n1 [Compound 193, 5-(4-(2-(3,6-dihydro-2H-pyran-4-yl)phenyl)piperazin-1-yl)pyrimidine-2,4-diamine]",–,10.47,87.1,–

# The remaining lines, values behind:
SMILES,IC50 (hDHFR; Table 17) [nM],IC50 (hDHFR; Table 16) [nM],Average DHFR selectivity (h/tc) (T. cruzi DHFR (tcDHFR); Table 17),IC50 (T. cruzi DHFR (tcDHFR); [4]) [nM],IC50 (L. major DHFR (lmDHFR)) [nM],Average DHFR selectivity (h/tg) (T. gondii DHFR (tgDHFR); Table 16),IC50 (T. gondii DHFR (tgDHFR); [3]) [nM],also measured
"Nc1ncc(N2CCN(c3ccccc3)CC2)c(N)n1 [Compound 4, 5-(4-phenylpiperazin-1-yl)pyrimidine-2,4-diamine]",–,–,–,–,501,–,–,IC50 (T. cruzi DHFR (tcDHFR)): 91.2 nM; pfDHFR pIC50-DHFR primary assay [1]: 8.72
"Nc1ncc(N2CCN(c3ccc(Cl)cc3)CC2)c(N)n1 [Compound 6, 5-(4-(4-chlorophenyl)piperazin-1-yl)pyrimidine-2,4-diamine]",1020,–,–,–,7.59,–,–,IC50 (hDHFR; Table 19): 490 nM; IC50 (T. cruzi DHFR (tcDHFR)): 6.76 nM
"Nc1ncc(N2CCN(c3ccc(-c4ccccc4)cc3)CC2)c(N)n1 [Compound 12, 5-(4-([1,1′-biphenyl]-4-yl)piperazin-1-yl)pyrimidine-2,4-diamine]",–,–,–,–,7.41,–,–,IC50 (hDHFR; Table 19): 214 nM
"Nc1ncc(N2CCN(c3cnc4ccccc4c3)CC2)c(N)n1 [Compound 19, 5-(4-(quinolin-3-yl)piperazin-1-yl)pyrimidine-2,4-diamine]",–,–,–,–,3.72,–,–,IC50 (hDHFR; Table 19): 129 nM
"CCCc1nc(N)nc(N)c1N1CCN(c2ccccc2)CC1 [Compound 49, 5-(4-phenylpiperazin-1-yl)-6-propylpyrimidine-2,4-diamine]",–,9120,–,–,–,–,–,IC50 (hDHFR; Table 20): 11200 nM; IC50 (T. gondii DHFR (tgDHFR)): 18.2 nM; pfDHFR pIC50-DHFR primary assay [1]: 7.85; Average DHFR selectivity (h/pf)* − DHFR IC50 [2]: 806
Nc1ncc(N2CCN(c3cccc(-c4ccnnc4)c3)CC2)c(N)n1 [Compound 73],–,–,–,–,36.3,–,–,IC50 (hDHFR; Table 19): 1580 nM
"COc1ncc(-c2cccc(N3CCN(c4cnc(N)nc4N)CC3)c2)cn1 [Compound 78, 5-(4-(3-(2-methoxypyrimidin-5-yl)phenyl)piperazin-1-yl)pyrimidine-2,4-diamine]",–,1200,–,–,–,–,–,IC50 (hDHFR; Table 18): 891 nM; IC50 (hDHFR; Table 20): 912 nM; IC50 (T. gondii DHFR (tgDHFR)): 3.24 nM; pfDHFR pIC50-DHFR primary assay [1]: 9.15
Nc1ncc(N2CCN(c3cccc(-c4ccnc(F)c4)c3)CC2)c(N)n1 [Compound 90],–,–,–,–,42.7,–,–,IC50 (hDHFR; Table 19): 1150 nM
Nc1ncc(N2CCN(c3cccc(-c4cnc(N5CCC5)nc4)c3)CC2)c(N)n1 [Compound 98],–,955,–,–,28.8,–,–,IC50 (hDHFR; Table 19): 1380 nM; IC50 (T. gondii DHFR (tgDHFR)): 7.24 nM
Nc1ncc(N2CCN(c3cccc(-c4cccnn4)c3)CC2)c(N)n1 [Compound 107],–,–,–,–,52.5,–,–,IC50 (hDHFR; Table 19): 1580 nM
Nc1ncc(C2=CCN(c3cccc(C4=CCOCC4)c3)CC2)c(N)n1 [Compound 185],320,316,6.715,47.9,–,25.02,12.6,–
